Source: paper PMC9646836, “Tetrahydroquinolinone derivatives exert antiproliferative effect on lung cancer cells through apoptosis induction” (Scientific Reports, 2022)

Experiments:
MCF-7 = assay: MTT cell viability assay, MCF-7; type: cell-based, human; details: Homo sapiens, MCF7, 72 h, mean ± SD, n = 3
Experimental: (§1) All new tetrahydroquinoline derivatives were assessed for cytotoxicity on a broad panel of cancer and normal cell lines, using the MTT assay. The half-inhibitory growth inhibitory concentration (IC50) values of each compound were calculated after 72 h of treatment and presented in Table 1. […] In this assay, the IC50 value of 5-FU and ETP was recorded as a positive control.
(§2) Non-small cell lung cancer cells A549 (CCL-185), breast cancer cells MCF-7 ([…]), hepatocarcinoma cells HepG2 ([…]), normal kidney cells HEK293 (CRL-1573), and osteosarcoma cells U-2 OS (HTB-96) were obtained from the American Type Culture Collection. HCT-116 cell line was kindly provided by prof. Bert Vogelstein (Johns Hopkins University, Howard Hughes Medical Institute, USA). The obtained A549 and MCF-7 cells were cultured in RPMI-1640 medium, HepG2 cells in Minimum Essential Medium Eagle medium, HEK-293 cells in Dulbecco’s Modified Eagle’s medium, and U-2 OS and HCT-116 cells in McCoy’s […] medium. All culture media were supplemented with 10% fetal bovine serum, 2 mM L-glutamine, and antibiotics (penicillin 62.6 µg/ml and streptomycin 40 µg/ml; Sigma-Aldrich). Both cancer and normal cells were cultured at 37 °C under a humidified atmosphere with 5% or 10% CO2 and routinely screened for Mycoplasma contamination. All materials and reagents were obtained from Corning unless stated otherwise.
(§3) The cytotoxic effect of the synthesized compounds was assessed by the MTT (4,5-dimethylthiazol-2-yl-2,5-diphenyltetrazoliumbromide; Sigma-Aldrich) assay. Briefly, the cells were seeded into 96-well transparent flat-bottom plates and allowed to attach overnight. On the next day, the cells were treated with compounds in the range of 0–50 µM for 72 h. Dimethyl sulfoxide (DMSO; Merck) and 5-fluorouracil (5-FU; Sigma-Aldrich) were used as a reference. After exposure to the compounds, 20 μl of the MTT solution at a concentration of 4 mg/ml was added to each well, and the plates were incubated again for 2–3 h at 37 °C. Next, the media in the wells was replaced with 100 μl DMSO to solubilize the formazan crystals. The absorbance was measured at 540 nm using an ASYS UVM340 microplate reader (Biochrom Ltd.). The IC50 value of the compounds was calculated using GraphPad Prism 9 software, based on the curves plotted with survival as a function of dose, averaged from three independent experiments.

HepG2 = assay: MTT cell viability assay, HepG2; type: cell-based; details: Homo sapiens, HepG2, 72 h, mean ± SD, n = 3
Experimental: as §1, §2, §3

A549 = assay: MTT cell viability assay, A549; type: cell-based, human; details: Homo sapiens, A549, 72 h, mean ± SD, n = 3
Experimental: as §1, §2, §3

A549 cells [1] = assay: Cell cycle progression (propidium iodide, flow cytometry); type: cell-based, human; details: A549, IC50 concentration
Experimental: A549 and HCT-116 cells were incubated with the tested compounds at their IC50 concentrations for 24, 48, and 72 h. DMSO (1% v/v) was used as a reference (Sigma-Aldrich). After incubation, the cells were collected in trypsin, fixed with 75% ice-cold ethanol, and stored overnight at − 20 °C. Then, the cells were stained with 20 μg/ml propidium iodide (Sigma-Aldrich) and 50 μg/ml RNaseA (Thermo Fisher Scientific) in phosphate-buffered saline (PBS) for 30 min at room temperature (RT). The content of DNA in cells was determined by flow cytometry (Guava EasyCyte 8 cell sorter; Merck Millipore) using FlowJo software v10. Each experiment was repeated three times.

A549 cells [2] = assay: Colony formation assay; type: cell-based, human; details: A549, 24 h pretreatment, 9 days culture, vs DMSO-treated control
Experimental: HCT-116 and A549 cells were seeded into six-well plates at a density of 500 cells per well and allowed to attach overnight. On the next day, the cells were pretreated with compound 4a at different concentrations or with 1% v/v DMSO for 24 h. After incubation, the cells were washed and cultured for 9 days. Next, the cells were fixed with methanol for 20 min and stained with 0.5% crystal violet (Sigma-Aldrich). Finally, the plates were dried overnight and imaged using a UVITEC Cambridge imaging system. Quantification was performed with ImageJ software. The surviving fraction was calculated as previously described. Each experiment was repeated three times.

A549 cells [3] = assay: Apoptosis assay (Annexin V/7-AAD, flow cytometry); type: cell-based, human; details: A549, IC50 concentration
Experimental: To further explain the mechanism by which 4a induced cell death in cancer cells, a flow cytometric analysis was performed by dual-staining the cells with 7-aminoactinomycin D (7-AAD) and Annexin V-fluorescein isothiocyanate (FITC). Annexin-V is a Ca^2+-dependent protein with potent affinity to phosphatidylserine. During early apoptosis, cells lose plasma membrane asymmetry through, for example, the externalization of phosphatidylserine. Once exposed to the outside of the cell surface, phosphatidylserine can be recognized by Annexin-V, and quantified. On the other hand, 7-AAD is a dye that cannot penetrate the intact cell membrane, and allows differentiating between necrotic and late apoptotic cells from living and early apoptotic cells. […] Treatment with the tested compound for 24 h caused 3.9-fold augmentation in apoptosis [early: 7-AAD (–), Annexin V-FITC (+); late: 7-AAD (+), Annexin V-FITC (+)] in comparison to the vehicle.
Cells were seeded in a 5-cm^2 dish at a density of 15 × 10^5 cells per dish and allowed to attach overnight at 37 °C. Then, compounds at IC50 concentrations were added to the medium. After 6, 24, and 48 h, the cells were harvested and washed with PBS. Subsequently, the cells were resuspended in the binding buffer and stained with Annexin V Alexa Fluor™ 488 conjugate (#A13201; Thermo Fisher Scientific) for the apoptosis assay and with CellEvent™ Caspase-3/7 Green Flow Cytometry Assay Kit (#C10427; Thermo Fisher Scientific) for the activation of caspase-3/7, as per the manufacturer’s instructions. After incubation, the samples were immediately analyzed using a Guava EasyCyte 8 cell sorter (Merck Millipore) and FlowJo software v10. Each experiment was repeated three times.

Hela = assay: MTT cell viability assay, Hela; type: cell-based; details: Homo sapiens, HeLa, 72 h, mean ± SD, n = 3
Experimental: as §1, §3

Question: Which results are given for `O=c1[nH]c2c(c(-c3ccccc3)c1Cc1cccc3ccccc13)CCCC2` [Compound 4a, 3-(1-naphthylmethyl)-4-phenyl-5,6,7,8-tetrahydro-1H-quinolin-2-one]?
Answer: IC50 (MCF-7): > 50 µM; IC50 (HepG2): > 50 µM; IC50 (A549): 11.3 ± 0.67 µM; fraction of cells at the G0/G1 phase (A549 cells [1]): time-dependent decrease; fraction of cells in sub-G0 phase (A549 cells [1]): concomitant increase; fraction of cells in G2 phase (A549 cells [1]; 24 h (DMSO 3.2%)): 15.5%; fraction of cells in G2 phase (A549 cells [1]; 48 h (DMSO 3.2%)): 33.8%; number of observed colonies (A549 cells [2]): significantly decreased; increase in the fraction of early-apoptotic cells [7-AAD (–), Annexin V-FITC (+)] (A549 cells [3]; 6 h, vs DMSO control): 14.03 ± 1.74%; augmentation in apoptosis (early + late) (A549 cells [3]; 24 h, vs vehicle): 3.9 fold; percentage of apoptotic cells (A549 cells [3]; 48 h): significant increase; IC50 (Hela): > 50 µM
